Reference: US11427553B2, “Dihydrooxadiazinones” (Bayer Aktiengesellschaft, priority 2017, dated 2022)

Experiments:
HeLa cells = test: Assay 1 cell proliferation measurement (CTG, 72 h), HeLa; type: cell-based, human; details: Homo sapiens, HeLa; Assay 1, 72 h, Cell Titer Glo; read-out: HeLa IC50 [nM] (Cervical cancer)
How it was run: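 Seed cells, incubate overnight at 37 °C; measure baseline viability (CTG, 0 h plate); dose compound in a 10-step 2.5-fold series (max generally 100 nM final, DMSO 0.3%) for 72 h; read CTG luminescence; fit IC50 with 4 parameters.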

SK-MEL-3 cells = test: Assay 1 cell proliferation measurement (CTG, 72 h), SK-MEL-3; type: cell-based, human; details: Homo sapiens, SK-MEL3; Assay 1, 72 h, Cell Titer Glo; read-out: SK-MEL-3 IC50 [nM] (melanoma)
Description: Cell Proliferation Measurement
The antiproliferative activity of the compounds of the general formula (I) was examined in vitro in human cancer cells. For this purpose, the appropriate number of cells (Hela: 800; SK-MEL-3: 1000; A549: 800) were plated in 384-well plates with appropriate growth medium ((A549: DMEM/Ham's F12 (Biochrom; #FG 4815 with stabile Glutamine), FCS 10% final (Biochrom; #S 0415); Hela: DMEM/Ham's F12 (Biochrom; #FG 4815 with stabile Glutamine), FCS 10% final (Biochrom; #S 0415); SK-MEL-3: McCoy's 5A (Biochrom; #F 1015), FCS 10% final (Biochrom; #S 0415), L-Alanyl-L-Glutamine final: 2 mM, (Biochrom; #K 0302)) and incubated at 37° C. overnight. After 24 h, cells on one plate (0 h plate) were treated with 30 μl/cavity of CTG solution (Promega Cell Titer Glo (catalogue #G755B and G756B)) and incubated at room temperature for 10 min, and luminescence was measured by means of a VICTOR V (Perkin Elmer), in order to determine cell viability on commencement of treatment. The cells on the test plate were treated with the compounds of the general formula (I) as and incubated at 37° C. for 72 h. The compounds were added to the cells by means of an HP D300 digital dispenser in a 10-step 2.5-fold dilution series generally starting at a maximum final drug concentration of 100 nM. As control, the cells were treated with vehicle (DMSO at 0.3% final concentration). After 72 h, the cells were treated with 30 μl/cavity of CTG solution (Promega Cell Titer Glo (catalogue #G755B and G756B)) and incubated at room temperature for 10 min. and luminescence was measured by means of a VICTOR V (Perkin Elmer), in order to determine cell viability at the end of treatment. The percentage effect on cell growth and the IC50 derived therefrom were determined for each test substance using the values from the 0 h plate […] and the DMSO control […]. The IC50 values were calculated using a 4-parameter fit.

human full length PDE3B = human full length PDE3B (Homo sapiens (Human), UniProt Q13370); test: Assay 5 PDE3B enzyme inhibition (3H-cAMP SPA); type: biochemical; details: Sf9 cell extract
Chain of human full length PDE3B (Q13370 whole entry): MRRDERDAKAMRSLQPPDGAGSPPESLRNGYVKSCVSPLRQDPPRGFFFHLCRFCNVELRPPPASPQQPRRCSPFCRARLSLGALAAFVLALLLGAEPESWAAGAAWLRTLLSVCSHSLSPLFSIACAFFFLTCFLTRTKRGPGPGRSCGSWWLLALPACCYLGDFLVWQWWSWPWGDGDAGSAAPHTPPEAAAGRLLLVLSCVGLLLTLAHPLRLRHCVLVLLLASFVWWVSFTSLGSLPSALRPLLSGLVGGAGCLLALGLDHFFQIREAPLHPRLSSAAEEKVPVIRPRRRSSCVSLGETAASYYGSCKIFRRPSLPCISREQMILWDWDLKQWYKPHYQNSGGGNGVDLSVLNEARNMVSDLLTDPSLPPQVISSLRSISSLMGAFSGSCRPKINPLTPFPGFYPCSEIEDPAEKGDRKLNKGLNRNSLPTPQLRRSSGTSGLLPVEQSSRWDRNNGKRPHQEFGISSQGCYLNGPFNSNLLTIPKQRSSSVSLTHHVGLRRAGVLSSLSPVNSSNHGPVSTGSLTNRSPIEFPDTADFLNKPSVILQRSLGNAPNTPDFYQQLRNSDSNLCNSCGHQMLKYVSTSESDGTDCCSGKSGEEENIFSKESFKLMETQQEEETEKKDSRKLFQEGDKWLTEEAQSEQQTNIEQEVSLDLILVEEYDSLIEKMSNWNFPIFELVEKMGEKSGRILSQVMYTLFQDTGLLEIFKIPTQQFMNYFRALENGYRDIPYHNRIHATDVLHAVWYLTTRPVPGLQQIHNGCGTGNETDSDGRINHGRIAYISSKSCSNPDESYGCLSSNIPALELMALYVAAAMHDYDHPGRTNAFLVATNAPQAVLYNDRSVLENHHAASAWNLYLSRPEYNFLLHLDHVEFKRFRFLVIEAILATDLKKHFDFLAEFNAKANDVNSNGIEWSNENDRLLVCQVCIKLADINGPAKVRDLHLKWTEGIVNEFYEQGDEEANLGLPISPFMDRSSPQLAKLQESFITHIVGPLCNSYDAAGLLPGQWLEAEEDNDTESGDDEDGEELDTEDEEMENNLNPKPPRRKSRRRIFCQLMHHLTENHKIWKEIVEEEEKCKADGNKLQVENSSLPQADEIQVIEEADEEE
How it was run: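 Compounds in DMSO are mixed with diluted PDE3B extract from Sf9 cells, and reactions start on adding tritiated cAMP. After 60 min at room temperature, yttrium scintillation proximity beads terminate hydrolysis and signal is counted; IC50 values come from sigmoidal dose-response curves.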

human full length PDE3A = human full length PDE3A (Homo sapiens (Human), UniProt Q14432); test: Assay 4 PDE3A enzyme inhibition (3H-cAMP SPA); type: biochemical; details: Sf9 cell extract
Chain of human full length PDE3A (Q14432 whole entry): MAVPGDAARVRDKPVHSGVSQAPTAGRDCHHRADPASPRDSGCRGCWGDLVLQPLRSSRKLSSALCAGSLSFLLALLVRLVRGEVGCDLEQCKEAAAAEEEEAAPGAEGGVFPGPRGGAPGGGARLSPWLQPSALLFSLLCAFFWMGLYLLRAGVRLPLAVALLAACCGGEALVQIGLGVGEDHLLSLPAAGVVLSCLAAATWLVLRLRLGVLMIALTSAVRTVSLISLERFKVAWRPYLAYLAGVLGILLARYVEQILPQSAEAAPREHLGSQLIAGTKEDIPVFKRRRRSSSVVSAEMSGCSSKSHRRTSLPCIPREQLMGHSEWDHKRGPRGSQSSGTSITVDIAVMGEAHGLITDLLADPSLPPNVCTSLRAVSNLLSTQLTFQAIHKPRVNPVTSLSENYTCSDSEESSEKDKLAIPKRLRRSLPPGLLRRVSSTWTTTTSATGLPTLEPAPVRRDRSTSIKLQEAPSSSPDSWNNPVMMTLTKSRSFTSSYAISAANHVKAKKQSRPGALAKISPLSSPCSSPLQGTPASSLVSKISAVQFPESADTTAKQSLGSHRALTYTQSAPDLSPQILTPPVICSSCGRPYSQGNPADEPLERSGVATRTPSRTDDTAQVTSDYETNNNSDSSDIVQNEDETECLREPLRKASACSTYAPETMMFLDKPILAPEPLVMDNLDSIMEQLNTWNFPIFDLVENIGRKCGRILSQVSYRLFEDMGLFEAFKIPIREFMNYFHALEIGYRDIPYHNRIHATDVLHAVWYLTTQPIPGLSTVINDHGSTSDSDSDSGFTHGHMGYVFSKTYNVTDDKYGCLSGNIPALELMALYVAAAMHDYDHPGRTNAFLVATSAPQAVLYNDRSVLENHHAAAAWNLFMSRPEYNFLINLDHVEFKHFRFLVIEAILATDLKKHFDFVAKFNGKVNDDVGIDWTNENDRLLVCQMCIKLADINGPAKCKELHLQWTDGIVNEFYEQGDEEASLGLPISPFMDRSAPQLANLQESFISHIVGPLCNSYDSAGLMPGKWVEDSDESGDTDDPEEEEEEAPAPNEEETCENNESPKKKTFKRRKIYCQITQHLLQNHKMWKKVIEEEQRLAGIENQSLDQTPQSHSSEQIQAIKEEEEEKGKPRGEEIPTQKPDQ
How it was run: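 Enzyme: Sf9 extract with overexpressed full-length PDE3A; substrate [8-3H]cAMP, 0.025 μCi/well; 60 min, room temperature, Tris/HCl pH 7.5 buffer with MgCl2, EDTA, BSA.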

| Compound | IC50 (HeLa cells) [nM] | IC50 (SK-MEL-3 cells) [nM] | IC50 (human full length PDE3B) [nM] | IC50 (human full length PDE3A) [nM] |
| --- | --- | --- | --- | --- |
| C[C@@H]1OC(=O)NN=C1c1ccc(N2CCOCC2)c(F)c1 [Example 25-1, (6S)-5-(3-Fluoro-4-morpholinophenyl)-6-methyl-3,6-dihydro-2H-1,3,4-oxadiazin-2-one] | 2 | 3 | 22 | 44 |
| C[C@@H]1OC(=O)NN=C1c1cc(F)c(N2CCOCC2)c(F)c1 [Example 25-2, (6S)-5-(3,5-Difluoro-4-morpholinophenyl)-6-methyl-3,6-dihydro-2H-1,3,4-oxadiazin-2-one] | 3 | 5 | 15 | 17 |
| O=C1NN=C(c2ccc(N3CCC(F)(F)C3)c(F)c2)CO1 [Example 26, 5-[4-(3,3-Difluoropyrrolidin-1-yl)-3-fluorophenyl]-3,6-dihydro-2H-1,3,4-oxadiazin-2-one] | 9 | 29 | 270 | 700 |
| Cc1cc(C2=NNC(=O)OC2)ccc1-c1ccccc1 [Example 27, 5-(2-Methylbiphenyl-4-yl)-3,6-dihydro-2H-1,3,4-oxadiazin-2-one] | 2 | 6 | 110 | 75 |
| Cc1ncc(-c2ccc(C3=NNC(=O)OC3)cc2C)cn1 [Example 28, 5-[3-Methyl-4-(2-methylpyrimidin-5-yl)phenyl]-3,6-dihydro-2H-1,3,4-oxadiazin-2-one] | 14 | 28 | 40 | 31 |
| Cc1cc(C2=NNC(=O)OC2)ccc1-c1ccnn1C [Example 29, 5-[3-Methyl-4-(1-methyl-1H-pyrazol-5-yl)phenyl]-3,6-dihydro-2H-1,3,4-oxadiazin-2-one] | 46 | > 100 | 160 | 300 |
| O=C1NN=C(c2ccc(-c3ccc(F)cc3)c(F)c2)CO1 [Example 30, 5-(2,4′-Difluorobiphenyl-4-yl)-3,6-dihydro-2H-1,3,4-oxadiazin-2-one] | 1 | 4 | 79 | 99 |
| Cc1ccc(-c2ccc(C3=NNC(=O)OC3)cc2C(F)(F)F)cn1 [Example 32, 5-[4-(6-Methylpyridin-3-yl)-3-(trifluoromethyl)phenyl]-3,6-dihydro-2H-1,3,4-oxadiazin-2-one] | 5 | 7 | 110 | 67 |
| O=C1NN=C(c2ccc(-c3cccnc3)c(C(F)(F)F)c2)CO1 [Example 33, 5-[4-(Pyridin-3-yl)-3-(trifluoromethyl)phenyl]-3,6-dihydro-2H-1,3,4-oxadiazin-2-one] | 6 | 10 | 80 | 65 |
| Nc1ccc(-c2ccc(C3=NNC(=O)OC3)cc2C(F)(F)F)cc1 [Example 34, 5-[4′-Amino-2-(trifluoromethyl)biphenyl-4-yl]-3,6-dihydro-2H-1,3,4-oxadiazin-2-one] | 3 | 765 | 100 | 100 |
| Cc1ccc(-c2ccc(C3=NNC(=O)OC3)cc2C(F)(F)F)cc1O [Example 35, 5-[3′-Hydroxy-4′-methyl-2-(trifluoromethyl)biphenyl-4-yl]-3,6-dihydro-2H-1,3,4-oxadiazin-2-one] | 39 | 25 | 75 | 79 |
| O=C1NN=C(c2ccc(-c3ccc(C(F)(F)F)nc3)c(C(F)(F)F)c2)CO1 [Example 36, 5-{3-(Trifluoromethyl)-4-[6-(trifluoromethyl)pyridin-3-yl]phenyl}-3,6-dihydro-2H-1,3,4-oxadiazin-2-one] | 23 | 39 | 320 | 280 |
| O=C1NN=C(c2ccc(-c3ccc(F)c(O)c3)c(C(F)(F)F)c2)CO1 [Example 37, 5-[4′-Fluoro-3′-hydroxy-2-(trifluoromethyl)biphenyl-4-yl]-3,6-dihydro-2H-1,3,4-oxadiazin-2-one] | 37 | 12 | 130 | 150 |
| Nc1cc(-c2ccc(C3=NNC(=O)OC3)cc2C(F)(F)F)c(F)cc1F [Example 38, 5-[5′-Amino-2′,4′-difluoro-2-(trifluoromethyl)biphenyl-4-yl]-3,6-dihydro-2H-1,3,4-oxadiazin-2-one] | 83 | > 100 | 260 | 210 |
| Nc1ccc(-c2ccc(C3=NNC(=O)OC3)cc2C(F)(F)F)cc1F [Example 39, 5-[4′-Amino-3′-fluoro-2-(trifluoromethyl)biphenyl-4-yl]-3,6-dihydro-2H-1,3,4-oxadiazin-2-one] | 4 | 6 | 75 | 72 |
| Nc1ccc(-c2ccc(C3=NNC(=O)OC3)cc2C(F)(F)F)cn1 [Example 40, 5-[4-(6-Aminopyridin-3-yl)-3-(trifluoromethyl)phenyl]-3,6-dihydro-2H-1,3,4-oxadiazin-2-one] | 5 | 7 | 39 | 42 |
| Nc1cc(-c2ccc(C3=NNC(=O)OC3)cc2C(F)(F)F)ccc1Cl [Example 41, 5-[3′-Amino-4′-chloro-2-(trifluoromethyl)biphenyl-4-yl]-3,6-dihydro-2H-1,3,4-oxadiazin-2-one] | 10 | 21 | 31 | 31 |
| Cc1ccc(-c2ccc(C3=NNC(=O)OC3)cc2C(F)(F)F)cc1N [Example 42, 5-[3′-Amino-4′-methyl-2-(trifluoromethyl)biphenyl-4-yl]-3,6-dihydro-2H-1,3,4-oxadiazin-2-one] | 55 | 64 | 250 | 170 |
| Nc1cccc(-c2ccc(C3=NNC(=O)OC3)cc2C(F)(F)F)c1F [Example 43, 5-[3′-Amino-2′-fluoro-2-(trifluoromethyl)biphenyl-4-yl]-3,6-dihydro-2H-1,3,4-oxadiazin-2-one] | 34 | 48 | 85 | 96 |
| Nc1ccc(-c2ccc(C3=NNC(=O)OC3)cc2C(F)(F)F)c(F)c1 [Example 44, 5-[4′-Amino-2′-fluoro-2-(trifluoromethyl)biphenyl-4-yl]-3,6-dihydro-2H-1,3,4-oxadiazin-2-one] | 14 | 9 | 200 | 190 |
| Cn1cc(-c2ccc(C3=NNC(=O)OC3)cc2C(F)(F)F)cn1 [Example 45, 5-[4-(1-Methyl-1H-pyrazol-4-yl)-3-(trifluoromethyl)phenyl]-3,6-dihydro-2H-1,3,4-oxadiazin-2-one] | 3 | 4 | 34 | 43 |
| Cc1n[nH]cc1-c1ccc(C2=NNC(=O)OC2)cc1C(F)(F)F [Example 46, 5-[4-(3-Methyl-1H-pyrazol-4-yl)-3-(trifluoromethyl)phenyl]-3,6-dihydro-2H-1,3,4-oxadiazin-2-one] | 21 | 34 | 17 | 27 |
| O=C1NN=C(c2ccc(-c3ccc4cn[nH]c4c3)c(C(F)(F)F)c2)CO1 [Example 47, 5-[4-(1H-Indazol-6-yl)-3-(trifluoromethyl)phenyl]-3,6-dihydro-2H-1,3,4-oxadiazin-2-one] | 2 | 2 | 33 | 53 |
| Cc1ncc(-c2ccc(C3=NNC(=O)OC3)cc2C(F)(F)F)cc1F [Example 48, 5-[4-(5-Fluoro-6-methylpyridin-3-yl)-3-(trifluoromethyl)phenyl]-3,6-dihydro-2H-1,3,4-oxadiazin-2-one] | 8 | 16 | 240 | 240 |
